# According to patent US9012443B2 (Amgen Inc., priority 2011, dated 2015):
# Structures can show the parent of a compound that is named as a salt. Where two headings read alike, the source gives them in different places.
# Experiments:
# Assay type in all cases: cell-based
# Nav 1.5 = Nav 1.5 (Homo sapiens (Human), UniProt Q14524); assay: Nav 1.5 in vitro PX assay (PatchXpress whole cell voltage clamp); settings: 293 cells stably transfected with Nav 1.5
# Description: Nav 1.5 In Vitro PX Assay
# 293 cells stably transfected with Nav 1.5 were recorded in whole cell voltage clamp mode with the PatchXpress automated electrophysiology system according the manufacturer's specifications (Molecular Devices, LLC, Sunnyvale, Calif.). Cells were held at a holding potential of −50 mV to inactivate sodium channels. To elicit sodium currents the voltage was changed to −120 mV to recover a portion of the channels, followed by delivery of test pulses of 20 msec duration to 0 mV, at 0.1 Hz. A single concentration of test compound was applied to cells for a duration of 5 minutes. Peak sodium current was measured at the end of the compound addition period to determine percent inhibition. A minimum of two cells were tested per concentration. IC50 curves were fitted to percent inhibition as a function of concentration.
# Nav 1.7 [1] = target: T1, Nav 1.7 (Homo sapiens (Human), UniProt Q15858); assay: Nav 1.7 in vitro PX assay (PatchXpress whole cell voltage clamp); settings: 293 cells, human Nav1.7, partially inactivated state; read-out: Nav1.7 PX IC50 IP
# How it was run: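 Partially inactivated channel state (holding potential for 20–50% inactivation) probed in human Nav1.7-transfected 293 cells by automated patch clamp, test pulse −10 mV for 20 msec.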
# Nav 1.7 [2] = target: T1, Nav 1.7; assay: Nav 1.7 IWQ in vitro assay (IonWorks Quattro population patch-clamp); settings: for IC50: 293 cells stably transfected with Nav 1.7, second part of table, read-out: Nav1.7 IWQ IC50 IP
# How it was run: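 Percent block, measured in duplicate, came from peak minus end-of-pulse current on the 26th −20 mV step, and IC50 was fitted against concentration. Stably transfected 293 cells were recorded in population patch-clamp mode before and after a single test concentration, which was added over 3–8 min while cells were unclamped.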
# [3] = first part of table, read-out: Nav 1.5 PX IC50
# [4] = second part of table, read-out: Nav1.5 PX IC50
# Nav 1.5, sequence (Q14524 whole entry): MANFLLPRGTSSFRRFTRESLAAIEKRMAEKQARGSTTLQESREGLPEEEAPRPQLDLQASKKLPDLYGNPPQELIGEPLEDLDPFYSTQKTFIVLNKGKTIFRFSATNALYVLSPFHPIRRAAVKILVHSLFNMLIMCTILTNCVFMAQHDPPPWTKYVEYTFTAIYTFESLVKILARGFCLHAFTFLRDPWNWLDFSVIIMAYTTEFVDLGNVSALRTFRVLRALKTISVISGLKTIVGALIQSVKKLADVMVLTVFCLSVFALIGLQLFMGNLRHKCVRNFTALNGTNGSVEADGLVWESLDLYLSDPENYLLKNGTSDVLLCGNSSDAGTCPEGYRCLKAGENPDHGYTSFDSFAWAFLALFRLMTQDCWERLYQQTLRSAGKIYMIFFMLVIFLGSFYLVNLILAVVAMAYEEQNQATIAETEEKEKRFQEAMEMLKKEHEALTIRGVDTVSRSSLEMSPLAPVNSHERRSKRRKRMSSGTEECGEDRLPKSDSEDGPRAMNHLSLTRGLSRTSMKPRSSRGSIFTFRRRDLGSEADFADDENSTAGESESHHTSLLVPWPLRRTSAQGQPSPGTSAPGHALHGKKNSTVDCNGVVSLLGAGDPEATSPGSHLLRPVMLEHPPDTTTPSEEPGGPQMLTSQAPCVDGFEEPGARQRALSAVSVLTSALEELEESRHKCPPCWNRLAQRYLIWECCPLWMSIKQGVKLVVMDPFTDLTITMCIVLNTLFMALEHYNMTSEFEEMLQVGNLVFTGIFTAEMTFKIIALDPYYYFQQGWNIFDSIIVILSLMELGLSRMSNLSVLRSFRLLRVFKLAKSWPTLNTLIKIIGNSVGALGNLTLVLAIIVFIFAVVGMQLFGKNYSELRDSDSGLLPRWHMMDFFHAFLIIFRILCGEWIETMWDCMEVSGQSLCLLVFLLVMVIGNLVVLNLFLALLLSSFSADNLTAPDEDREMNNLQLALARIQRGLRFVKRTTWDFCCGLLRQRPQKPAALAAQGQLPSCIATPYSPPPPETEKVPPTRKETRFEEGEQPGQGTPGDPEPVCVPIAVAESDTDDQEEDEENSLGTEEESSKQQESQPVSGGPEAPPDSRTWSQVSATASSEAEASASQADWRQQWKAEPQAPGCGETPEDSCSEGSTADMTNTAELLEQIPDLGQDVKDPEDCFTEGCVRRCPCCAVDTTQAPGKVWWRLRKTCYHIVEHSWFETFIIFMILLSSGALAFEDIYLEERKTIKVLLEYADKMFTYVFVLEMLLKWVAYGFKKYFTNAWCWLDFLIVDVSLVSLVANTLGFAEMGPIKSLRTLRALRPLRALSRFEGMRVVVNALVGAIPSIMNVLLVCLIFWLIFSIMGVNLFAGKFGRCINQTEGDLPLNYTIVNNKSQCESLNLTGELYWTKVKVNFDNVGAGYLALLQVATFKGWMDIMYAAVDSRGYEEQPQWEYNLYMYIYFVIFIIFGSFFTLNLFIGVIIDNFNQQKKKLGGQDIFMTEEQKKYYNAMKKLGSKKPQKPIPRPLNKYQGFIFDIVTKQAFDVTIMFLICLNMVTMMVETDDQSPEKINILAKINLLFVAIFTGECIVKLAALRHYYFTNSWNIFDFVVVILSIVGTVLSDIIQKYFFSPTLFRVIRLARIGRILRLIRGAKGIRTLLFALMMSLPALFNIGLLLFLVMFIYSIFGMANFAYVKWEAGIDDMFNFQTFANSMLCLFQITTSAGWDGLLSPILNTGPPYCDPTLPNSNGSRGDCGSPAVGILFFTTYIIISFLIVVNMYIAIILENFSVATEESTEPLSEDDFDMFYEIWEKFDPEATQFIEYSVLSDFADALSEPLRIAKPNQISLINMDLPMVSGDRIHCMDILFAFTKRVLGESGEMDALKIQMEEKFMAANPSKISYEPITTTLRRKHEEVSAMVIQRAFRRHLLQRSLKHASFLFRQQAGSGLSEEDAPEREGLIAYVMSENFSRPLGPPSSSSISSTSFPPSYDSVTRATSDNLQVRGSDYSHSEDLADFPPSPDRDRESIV
# T1 sequence (Q15858 whole entry): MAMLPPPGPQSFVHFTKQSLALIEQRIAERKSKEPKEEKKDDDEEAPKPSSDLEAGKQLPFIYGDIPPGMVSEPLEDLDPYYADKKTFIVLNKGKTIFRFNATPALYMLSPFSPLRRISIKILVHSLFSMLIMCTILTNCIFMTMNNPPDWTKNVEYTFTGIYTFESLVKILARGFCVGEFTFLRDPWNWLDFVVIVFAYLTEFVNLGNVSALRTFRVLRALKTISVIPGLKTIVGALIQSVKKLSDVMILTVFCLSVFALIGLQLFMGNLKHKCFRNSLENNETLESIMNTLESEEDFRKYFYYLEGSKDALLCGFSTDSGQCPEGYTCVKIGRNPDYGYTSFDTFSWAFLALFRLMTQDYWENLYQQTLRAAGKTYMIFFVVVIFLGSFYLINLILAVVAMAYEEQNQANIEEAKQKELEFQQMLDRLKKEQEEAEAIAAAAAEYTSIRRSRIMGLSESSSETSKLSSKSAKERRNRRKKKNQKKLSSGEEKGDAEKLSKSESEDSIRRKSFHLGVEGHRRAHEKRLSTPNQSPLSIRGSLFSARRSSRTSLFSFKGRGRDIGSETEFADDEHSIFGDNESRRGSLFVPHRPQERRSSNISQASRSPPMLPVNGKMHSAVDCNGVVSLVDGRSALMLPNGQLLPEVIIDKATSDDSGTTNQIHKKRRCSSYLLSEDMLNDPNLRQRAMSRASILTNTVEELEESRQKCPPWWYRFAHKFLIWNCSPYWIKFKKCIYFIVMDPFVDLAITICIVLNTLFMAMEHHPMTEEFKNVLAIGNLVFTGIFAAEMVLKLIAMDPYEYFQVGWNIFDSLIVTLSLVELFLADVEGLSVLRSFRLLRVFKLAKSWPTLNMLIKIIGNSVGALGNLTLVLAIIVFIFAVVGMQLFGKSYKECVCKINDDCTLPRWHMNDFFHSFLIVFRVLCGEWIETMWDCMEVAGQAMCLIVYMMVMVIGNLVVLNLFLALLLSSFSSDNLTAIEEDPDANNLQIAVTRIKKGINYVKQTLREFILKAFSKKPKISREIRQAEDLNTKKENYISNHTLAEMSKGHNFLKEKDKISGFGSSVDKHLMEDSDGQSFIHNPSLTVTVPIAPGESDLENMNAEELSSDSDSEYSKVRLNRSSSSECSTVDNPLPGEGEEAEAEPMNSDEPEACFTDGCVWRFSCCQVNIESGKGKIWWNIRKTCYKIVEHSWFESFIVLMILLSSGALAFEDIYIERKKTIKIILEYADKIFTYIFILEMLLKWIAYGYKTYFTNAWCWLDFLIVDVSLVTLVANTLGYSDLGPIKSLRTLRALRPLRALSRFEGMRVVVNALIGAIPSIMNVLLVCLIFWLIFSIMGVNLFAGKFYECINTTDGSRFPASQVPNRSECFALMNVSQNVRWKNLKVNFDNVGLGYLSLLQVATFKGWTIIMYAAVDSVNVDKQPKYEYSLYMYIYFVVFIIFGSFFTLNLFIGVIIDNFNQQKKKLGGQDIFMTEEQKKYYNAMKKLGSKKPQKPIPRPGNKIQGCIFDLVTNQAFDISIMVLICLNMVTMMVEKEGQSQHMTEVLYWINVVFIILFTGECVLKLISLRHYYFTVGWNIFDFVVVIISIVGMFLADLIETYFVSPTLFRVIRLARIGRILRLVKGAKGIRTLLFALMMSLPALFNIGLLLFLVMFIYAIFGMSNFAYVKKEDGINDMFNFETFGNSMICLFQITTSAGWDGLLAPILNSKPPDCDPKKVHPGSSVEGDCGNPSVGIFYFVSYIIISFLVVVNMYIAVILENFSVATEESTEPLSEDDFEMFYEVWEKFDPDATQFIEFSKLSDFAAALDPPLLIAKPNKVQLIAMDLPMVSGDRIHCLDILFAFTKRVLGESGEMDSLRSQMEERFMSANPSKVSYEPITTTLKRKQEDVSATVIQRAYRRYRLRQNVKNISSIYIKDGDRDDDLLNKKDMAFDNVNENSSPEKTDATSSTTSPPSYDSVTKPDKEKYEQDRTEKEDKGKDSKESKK
IC50 (Nav 1.7 [1]),IC50 (Nav 1.7 [2]),Nav1.7 Single Point Data IWQ (at […]) (%) (Nav 1.7 [2]),SMILES,IC50 (Nav 1.5; [3]),IC50 (Nav 1.5; [4])
–,–,–,COc1cc(Cl)ccc1-c1cccc2cc(S(=O)(=O)Nc3ncns3)ccc12 [Example 30],19900 nM,–
–,–,–,Nc1cc(Cl)ccc1-c1cccc2cc(S(=O)(=O)Nc3ncns3)ccc12 [Example 31],> 30000 nM,–
–,–,–,Cc1cc(Cl)ccc1-c1cccc2cc(S(=O)(=O)Nc3ncns3)ccc12 [Example 33],9580 nM,–
–,–,–,O=S(=O)(Nc1ncns1)c1ccc2c(-c3ccc(Cl)cc3)cccc2c1 [Example 34],5960 nM,–
–,–,–,O=S(=O)(Nc1ncns1)c1ccc2c(-c3ccc(Cl)cc3F)cccc2c1 [Example 35],9990 nM,–
–,–,–,O=S(=O)(Nc1ncns1)c1ccc2c(-c3ccc(C(F)(F)F)cc3F)cccc2c1 [Example 36],15100 nM,–
–,–,–,O=S(=O)(Nc1ncns1)c1ccc2c(-c3ccc(C(F)(F)F)cc3)cccc2c1 [Example 37],14400 nM,–
–,–,–,COc1cc(C)ccc1-c1nccc2cc(S(=O)(=O)Nc3nccs3)ccc12 [Example 175],–,> 30000 nM
500 nM,–,–,"COc1cc(Cl)c(Cl)cc1-c1nccc2cc(S(=O)(=O)Nc3nccs3)ccc12 [Example 177, 1-(4,5-DICHLORO-2-METHOXYPHENYL)-N-(THIAZOL-2-YL)ISOQUINOLINE-6-SULFONAMIDE]",–,> 30000 nM
330 nM,–,–,"N#CCOc1cc(F)ccc1-c1nccc2cc(S(=O)(=O)Nc3nccs3)ccc12 [Example 192, 1-(2-(CYANOMETHOXY)-4-FLUOROPHENYL)-N-(THIAZOL-2-YL)ISOQUINOLINE-6-SULFONAMIDE]",–,> 30000 nM
380 nM,–,–,"COc1cc(C(F)(F)F)ccc1-c1ncc(O)c2cc(S(=O)(=O)Nc3nccs3)ccc12 [Example 232, 4-HYDROXY-1-(2-METHOXY-4-(TRIFLUOROMETHYL)PHENYL)-N-(THIAZOL-2-YL)ISOQUINOLINE-6-SULFONAMIDE]",–,20400 nM
320 nM,–,–,"COc1cc(C(F)(F)F)ccc1-c1cnnc2cc(S(=O)(=O)Nc3nccs3)ccc12 [Example 259, 4-(2-METHOXY-4-(TRIFLUOROMETHYL)PHENYL)-N-(THIAZOL-2-YL)CINNOLINE-7-SULFONAMIDE]",–,> 30000 nM
150 nM,–,–,"COc1cc(C(F)F)c(Cl)cc1-c1ncnc2cc(S(=O)(=O)Nc3nccs3)ccc12 [Example 270, 4-(5-CHLORO-4-(DIFLUOROMETHYL)-2-METHOXYPHENYL)-N-(THIAZOL-2-YL)QUINAZOLINE-7-SULFONAMIDE]",–,7440 nM
450 nM,–,–,"COc1cc(F)ccc1-c1ncnc2cc(S(=O)(=O)Nc3nccs3)ccc12 [Example 271, 4-(4-FLUORO-2-METHOXYPHENYL)-N-(THIAZOL-2-YL)QUINAZOLINE-7-SULFONAMIDE]",–,> 30000 nM
460 nM,–,–,"COc1ccccc1-c1ncnc2cc(S(=O)(=O)Nc3nccs3)ccc12 [Example 272, 4-(2-METHOXYPHENYL)-N-(THIAZOL-2-YL)QUINAZOLINE-7-SULFONAMIDE]",–,> 30000 nM
340 nM,70 nM,–,"COc1ccccc1-c1ccnc2cc(S(=O)(=O)Nc3nccs3)ccc12 [Example 277, 4-(2-METHOXYPHENYL)-N-(THIAZOL-2-YL)QUINOLINE-7-SULFONAMIDE]",–,–
2020 nM,220 nM,–,"O=S(=O)(Nc1nccs1)c1ccc2c(-c3ccc(C(F)(F)F)cc3Cl)ccnc2c1 [Example 278, 4-(2-CHLORO-4-(TRIFLUOROMETHYL)PHENYL)-N-(THIAZOL-2-YL)QUINOLINE-7-SULFONAMIDE]",–,–
210 nM,10 nM,–,"COc1cc(C(F)(F)F)ccc1-c1c(N)cnc2cc(S(=O)(=O)Nc3nccs3)ccc12 [Example 283, 3-AMINO-4-(2-METHOXY-4-(TRIFLUOROMETHYL)PHENYL)-N-(THIAZOL-2-YL)QUINOLINE-7-SULFONAMIDE]",–,–
320 nM,60 nM,–,"COc1cc(C(F)(F)F)ccc1-c1c(C#N)cnc2cc(S(=O)(=O)Nc3nccs3)ccc12 [Example 284, 3-CYANO-4-(2-METHOXY-4-(TRIFLUOROMETHYL)PHENYL)-N-(THIAZOL-2-YL)QUINOLINE-7-SULFONAMIDE]",–,–
580 nM,40 nM,–,"COc1cc(C(F)(F)F)ccc1-c1cncc2cc(S(=O)(=O)Nc3ccncn3)ccc12 [Example 285, 4-(2-METHOXY-4-(TRIFLUOROMETHYL)PHENYL)-N-(PYRIMIDIN-4-YL)ISOQUINOLINE-7-SULFONAMIDE HYDROCHLORIDE]",–,–
600 nM,40 nM,–,"COc1cc(C(F)(F)F)ccc1-c1cncc2cc(S(=O)(=O)Nc3nccs3)ccc12 [Example 288, 4-(2-METHOXY-4-(TRIFLUOROMETHYL)PHENYL)-N-(THIAZOL-2-YL)ISOQUINOLINE-7-SULFONAMIDE]",–,–
340 nM,–,–,"COc1ccccc1-c1cncc2cc(S(=O)(=O)Nc3nccs3)ccc12 [Example 289, 4-(2-methoxyphenyl)-N-(thiazol-2-yl)isoquinoline-7-sulfonamide]",–,> 30000 nM
37400 nM,> 10000 nM,32%,"COC(=O)c1cccc2cc(S(=O)(=O)Nc3ncns3)ccc12 [Example 318, METHYL 6-(N-(1,2,4-THIADIAZOL-5-YL)SULFAMOYL)-1-NAPHTHOATE]",–,–
407 nM,–,–,"COc1cc(C(F)(F)F)ccc1-c1ccnc2cc(S(=O)(=O)Nc3nccs3)c(F)cc12 [Example 319, 6-FLUORO-4-(2-METHOXY-4-(TRIFLUOROMETHYL)PHENYL)-N-(THIAZOL-2-YL)QUINOLINE-7-SULFONAMIDE 2,2,2-TRIFLUOROACETATE]",–,2790 nM
155 nM,–,–,"COc1ccccc1-c1ccnc2cc(S(=O)(=O)Nc3ncns3)ccc12 [Example 320, 4-(2-METHOXYPHENYL)-N-(1,2,4-THIADIAZOL-5-YL)QUINOLINE-7-SULFONAMIDE 2,2,2-TRIFLUOROACETATE]",–,> 30000 nM
251 nM,–,–,"COc1ccc(-c2cccc(F)c2)cc1-c1ccnc2cc(S(=O)(=O)Nc3ccncn3)ccc12 [Example 321, 4-(3′-FLUORO-4-METHOXY-[1,1′-BIPHENYL]-3-YL)-N-(PYRIMIDIN-4-YL)QUINOLINE-7-SULFONAMIDE]",–,> 30000 nM
333 nM,–,–,Cc1cc(Cl)ccc1-c1ccnc2cc(S(=O)(=O)Nc3ncns3)ccc12 [Example 322],–,> 30000 nM
662 nM,–,–,"COc1ccccc1-c1c(C#N)cnc2cc(S(=O)(=O)Nc3nccs3)ccc12 [Example 324, 3-CYANO-4-(2-METHOXYPHENYL)-N-(THIAZOL-2-YL)QUINOLINE-7-SULFONAMIDE]",–,> 30000 nM
> 30000 nM,–,54.7%,"O=S(=O)(Nc1ccncn1)c1ccc2c(-c3cnn(-c4cccc(Cl)c4)c3)nccc2c1 [Example 429, 1-(1-(3-CHLOROPHENYL)-1H-PYRAZOL-4-YL)-N-(PYRIMIDIN-4-YL)ISOQUINOLINE-6-SULFONAMIDE]",–,–

SMILES,IC50 (Nav 1.7 [1]),IC50 (Nav 1.7 [2]),Nav1.7 Single Point Data IWQ (at […]) (%) (Nav 1.7 [2]),IC50 (Nav 1.5; [3]),IC50 (Nav 1.5; [4])
"COc1cc(C(F)(F)F)ccc1-c1nccc2cc(S(=O)(=O)Nc3nccs3)cnc12 [Example 291, 8-(2-METHOXY-4-(TRIFLUOROMETHYL)PHENYL)-N-(THIAZOL-2-YL)-1,7-NAPHTHYRIDINE-3-SULFONAMIDE]",2530 nM,160 nM,–,–,–
"COc1cc(C(F)(F)F)ccc1-c1n[nH]c(=O)c2cc(S(=O)(=O)Nc3nccs3)ccc12 [Example 293, 1-(2-METHOXY-4-(TRIFLUOROMETHYL)PHENYL)-4-OXO-N-(THIAZOL-2-YL)-3,4-DIHYDROPHTHALAZINE-6-SULFONAMIDE]",150 nM,–,–,–,> 30000 nM
